Results as given in patent publication US9643964B2, “3-(2-aminopyrimidin-4-yl)-5-(3-hydroxypropynyl)-1H-pyrrolo[2,3-C]pyridine derivatives as NIK inhibitors for the treatment of cancer” (Janssen Pharmaceutica NV, priority 2013, dated 2017).

Columns and labels:
[1] = molecular target: Recombinant Human NF-kappaB-Inducing Kinase (NIK/MAP3K14) (Homo sapiens, UniProt Q99558); assay: Biological Assay A2: inhibition of auto-phosphorylation of recombinant human NIK/MAP3K14 (AlphaScreen); format: biochemical; details: auto-phosphorylation; averaged over all measurements on all batches; read-out: αscreen IC50
Chain of Recombinant Human NF-kappaB-Inducing Kinase (NIK/MAP3K14) (Q99558 whole entry): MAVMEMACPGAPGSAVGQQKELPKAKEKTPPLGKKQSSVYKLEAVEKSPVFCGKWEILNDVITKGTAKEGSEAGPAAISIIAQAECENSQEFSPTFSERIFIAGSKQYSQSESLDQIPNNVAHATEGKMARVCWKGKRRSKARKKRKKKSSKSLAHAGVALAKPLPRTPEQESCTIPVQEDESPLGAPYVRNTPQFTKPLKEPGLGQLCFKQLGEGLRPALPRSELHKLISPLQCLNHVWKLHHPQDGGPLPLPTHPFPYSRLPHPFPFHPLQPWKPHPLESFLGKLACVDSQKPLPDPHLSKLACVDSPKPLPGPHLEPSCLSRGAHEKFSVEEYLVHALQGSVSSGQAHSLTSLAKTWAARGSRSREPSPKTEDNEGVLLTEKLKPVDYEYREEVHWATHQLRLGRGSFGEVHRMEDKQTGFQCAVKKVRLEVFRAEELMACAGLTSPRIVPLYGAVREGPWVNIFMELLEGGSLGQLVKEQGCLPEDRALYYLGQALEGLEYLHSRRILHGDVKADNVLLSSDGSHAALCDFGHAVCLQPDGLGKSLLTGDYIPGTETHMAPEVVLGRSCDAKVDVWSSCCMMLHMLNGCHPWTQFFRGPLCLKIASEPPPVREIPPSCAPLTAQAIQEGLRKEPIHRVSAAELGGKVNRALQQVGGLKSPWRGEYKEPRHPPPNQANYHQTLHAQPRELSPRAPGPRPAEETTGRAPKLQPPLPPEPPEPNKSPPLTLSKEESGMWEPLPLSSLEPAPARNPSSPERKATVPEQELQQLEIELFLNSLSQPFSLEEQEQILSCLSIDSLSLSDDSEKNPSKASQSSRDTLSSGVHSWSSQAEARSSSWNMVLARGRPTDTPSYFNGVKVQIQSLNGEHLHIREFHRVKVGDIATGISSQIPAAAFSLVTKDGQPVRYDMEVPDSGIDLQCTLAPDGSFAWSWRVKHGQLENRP
Protocol: Inhibition of Auto-Phosphorylation of Recombinant Human NF-kappaB-Inducing Kinase (NIK/MAP3K14) Activity (AlphaScreen®)
NIK/MAP3K14 auto-phosphorylation activity was measured using the AlphaScreen® (αscreen) format (Perkin Elmer). All compounds tested were dissolved in dimethyl sulfoxide (DMSO) and further dilutions were made in assay buffer. Final DMSO concentration was 1% (v/v) in assays. Assay buffer was 50 mM Tris pH 7.5 containing 1 mM EGTA (ethylene glycol tetraacetic acid), 1 mM DTT (dithiothreitol), 0.1 mM Na3VO4, 5 mM MgCl2, 0.01% Tween 20. Assays were carried out in 384 well Alphaplates (Perkin Elmer). Incubations consisted of compound, 25 microM Adenosine-5′-triphosphate (ATP), and 0.2 nM NIK/MAP3K14. Incubations were initiated by addition of GST-tagged NIK/MAP3K14 enzyme, carried out for 1 h at 25° C. and terminated by addition of stop buffer containing anti-phospho-IKK Ser176/180 antibody. Protein A Acceptor and Glutathione-Donor beads were added before reading using an EnVision® Multilabel Plate Reader (Perkin Elmer). Signal obtained in the wells containing blank samples was subtracted from all other wells and IC50's were determined by fitting a sigmoidal curve to % inhibition of control versus Log10 compound concentration.

LP-1 cells = assay: Biological Assay C: antiproliferative activity on LP-1 cells (CellTiter-Glo); format: cell-based, human; details: 72 hr treatment, averaged values
Protocol: (§1) Determination of Antiproliferative Activity on LP-1, L-363 and JJN-3 Cells
(§2) All compounds tested were dissolved in DMSO and further dilutions were made in culture medium. Final DMSO concentration was 0.3% (v/v) in cell proliferation assays. Viability was assessed using CellTiter-Glo cell viability assay kit (Promega). The human LP-1, L-363 and JJN-3 cells (DSMZ) were cultured in RPMI 1640 medium supplemented with 2 mM L-glutamine, and 10% fetal calf serum (PAA). Cells were routinely kept as suspension cells at 37° C. in a humidified 5% CO2 atmosphere. Cells were passaged at a seeding density of 0.2×10^6/ml twice a week. Cells were seeded in black tissue culture treated 96-well plates (Perkin Elmer). Densities used for plating ranged from 2,000 to 6,000 cells per well in a total volume of 75 μl medium. After twenty four hours, drugs and/or solvents were added (25 μl) to a final volume of 100 μl. Following 72 hr of treatment plates were removed from the incubator and allowed to equilibrate to room temperature for approx 10 min. 100 μl CellTiter-Glo reagent was added to each well that was then covered (Perkin Elmer Topseal) and shaken on plate shaker for 10 min. Luminescence was measured on a HTS Topcount (Perkin Elmer). Within an experiment, the results for each treatment were the mean of 2 replicate wells. For initial screening purposes, compounds were tested using a 9 point dilution curve (serial 1:3 dilutions). For each experiment, controls (containing no drug) and a blank incubation (containing cells read at the time of compound addition) were run in parallel. The blank value was subtracted from all control and sample values. For each sample, the mean value for cell growth (in relative light units) was expressed as a percentage of the mean value for cell growth of the control.

L-363 cells = assay: Biological Assay C: antiproliferative activity on L-363 cells (CellTiter-Glo); format: cell-based, human; details: 72 hr treatment, averaged values
Protocol: as §1, §2

JJN-3 cells = assay: Biological Assay C: antiproliferative activity on JJN-3 cells (CellTiter-Glo); format: cell-based, human; details: 72 hr treatment, averaged values
Protocol: as §1, §2

SMILES	IC50 [1] [nM]	EC50 (LP-1 cells; Homo sapiens, LP-1, 72 h) [nM]	EC50 (L-363 cells; Homo sapiens, L-363, 72 h) [nM]	EC50 (JJN-3 cells; Homo sapiens, JJN-3, 72 h) [nM]	EC50 (LP-1 cells) [nM]	EC50 (L-363 cells) [nM]	EC50 (JJN-3 cells) [nM]
CC(C)N1CC(n2cc(-c3ccnc(N)n3)c3cc(C#CC(C)(C)O)ncc32)C1 [Compound 80]	76	2500	160	310	–	–	–
COCCCn1cc(-c2cc(C)nc(N)n2)c2cc(C#CC(C)(C)O)ncc21 [Compound 81]	100	28000	5900	5700	–	–	–
Cc1cnc(N)nc1-c1cn(CC2CCOCC2)c2cnc(C#CC(C)(C)O)cc12 [Compound 82]	35	13000	890	1100	–	–	–
COCCCn1cc(-c2nc(N)ncc2C)c2cc(C#CC(C)(C)O)ncc21 [Compound 83]	86	4700	550	670	–	–	–
COCCCn1cc(-c2ccnc(N)n2)c2cc(C#CC(C)(C)O)nc(C)c21 [Compound 84]	68	250	22	67	–	–	–
CCN1CCC(n2cc(-c3nc(N)ncc3F)c3cc(C#CC(C)(C)O)ncc32)CC1 [Compound 85]	33	190	15	44	–	–	–
COCCCn1cc(-c2nc(N)ncc2F)c2cc(C#CC(C)(C)O)nc(C)c21 [Compound 86]	11	16	5.9	9.2	–	–	–
COCCCn1cc(-c2nc(N)ncc2F)c2cc(C#CC3(O)CCCC3)ncc21 [Compound 87]	9	1200	450	530	–	–	–
COCCCn1cc(-c2nc(N)ncc2F)c2cc(C#CC(C)(O)C3CC3)ncc21 (centres unmarked) [Compound 88]	15	220	110	130	–	–	–
CNc1ncc(F)c(-c2cn(CCCOC)c3cnc(C#CC4(O)CCCC4)cc23)n1 [Compound 89]	130	7600	4200	3700	–	–	–
CNc1ncc(F)c(-c2cn(CCCOC)c3cnc(C#CC(C)(C)O)cc23)n1 [Compound 90]	44	740	510	720	–	–	–
COCCCn1cc(-c2nc(N)ncc2F)c2cc(C#CC(C)(O)c3cc(C)on3)ncc21 (centres unmarked) [Compound 91]	12	4900	470	1100	–	–	–
COCCCn1cc(-c2nc(N)ncc2F)c2cc(C#CC(C)(C)O)nc(Cl)c21 [Compound 92]	47	86	32	54	–	–	–
COCCCn1cc(-c2nc(N)ncc2F)c2cc(C#CC3(O)CCCC3)nc(C3CC3)c21 [Compound 93]	10	860	250	310	–	–	–
Nc1ncc(F)c(-c2cn(C3COC3)c3c(C4CC4)nc(C#CC4(O)CCCC4)cc23)n1 [Compound 94]	31	2700	200	300	–	–	–
COCCCn1cc(-c2nc(N)ncc2F)c2cc(C#CC3(O)CCC3)ncc21 [Compound 95]	7	470	95	150	–	–	–
COCCCn1cc(-c2nc(N)ncc2F)c2cc(C#CC(C)(O)C3CC3)nc(C(F)F)c21 (centres unmarked) [Compound 96]	170	> 10000	6600	> 10000	–	–	–
CN1CC(n2cc(-c3nc(N)ncc3C(F)(F)F)c3cc(C#CC(C)(O)C4CC4)ncc32)C1 (centres unmarked) [Compound 99]	110	2000	1100	1100	–	–	–
CC(O)(C#Cc1cc2c(-c3nc(N)ncc3C(F)(F)F)cn(C3COC3)c2cn1)C1CC1 (centres unmarked) [Compound 100]	61	3000	1500	1400	–	–	–

SMILES	IC50 [1] [nM]	EC50 (LP-1 cells; Homo sapiens, LP-1, 72 h) [nM]	EC50 (L-363 cells; Homo sapiens, L-363, 72 h) [nM]	EC50 (JJN-3 cells; Homo sapiens, JJN-3, 72 h) [nM]	EC50 (LP-1 cells) [nM]	EC50 (L-363 cells) [nM]	EC50 (JJN-3 cells) [nM]
COC(C)(C)Cn1cc(-c2nc(N)ncc2F)c2cc(C#CC(C)(O)C3CC3)ncc21 (centres unmarked) [Compound 101]	38	220	160	160	–	–	–
CC(O)(C#Cc1cc2c(-c3nc(N)ncc3F)cn(C3CN(C4CC4)C3)c2cn1)C1CC1 (centres unmarked) [Compound 104]	53	470	180	260	–	–	–
CC(O)(C#Cc1cc2c(-c3nc(N)ncc3F)cn(CCCN3CCOCC3)c2cn1)C1CC1 (centres unmarked) [Compound 105]	190	530	140	200	–	–	–
CCN1CCC(n2cc(-c3nc(N)ncc3F)c3cc(C#CC(C)(O)C4CC4)ncc32)CC1 (centres unmarked) [Compound 106]	95	340	90	120	–	–	–
CN1CCC(n2cc(-c3nc(N)ncc3F)c3cc(C#CC(C)(O)C4CC4)ncc32)C1 (centres unmarked) [Compound 107]	88	150	57	78	–	–	–
COCCN1CCC(n2cc(-c3nc(N)ncc3F)c3cc(C#CC(C)(O)C4CC4)ncc32)CC1 (centres unmarked) [Compound 108]	140	640	280	270	–	–	–
Cn1cc(Cn2cc(-c3nc(N)ncc3F)c3cc(C#CC(C)(O)C4CC4)ncc32)cn1 (centres unmarked) [Compound 109]	120	1200	360	460	–	–	–
[2H]C([2H])([2H])C(O)(C#Cc1cc2c(-c3nc(N)ncc3F)cn(C3COC3)c2cn1)C1([2H])C([2H])([2H])C1([2H])[2H] (centres unmarked) [Compound 110]	17	580	140	170	–	–	–
COCCn1cc(-c2ccnc(N)n2)c2cc(C#CC(C)(O)C3CCNCC3)ncc21 (centres unmarked) [Compound 115]	4900	> 10000	> 10000	> 10000	–	–	–
COCCN1CCC(n2cc(-c3nc(N)ncc3F)c3cc(C#CC(C)(O)C4CC4)ncc32)CC1 (centres unmarked) [Compound 126]	140	–	–	–	640	280	270
CCN1CCOC(Cn2cc(-c3nc(N)ncc3F)c3cc(C#CC(C)(O)C4CC4)ncc32)C1 (centres unmarked) [Compound 127]	180	420	190	240	–	–	–
COCC(C)n1cc(-c2nc(N)ncc2F)c2cc(C#CC(C)(O)C3CC3)ncc21 (centres unmarked) [Compound 128]	76	310	120	130	–	–	–
CC1(Cn2cc(-c3nc(N)ncc3F)c3cc(C#CC(C)(O)C4CC4)ncc32)COC1 (centres unmarked) [Compound 129]	23	920	150	210	–	–	–
CC(O)(C#Cc1cc2c(-c3nc(N)ncc3F)cn(CC3CCCO3)c2cn1)C1CC1 (centres unmarked) [Compound 130]	28	640	190	300	–	–	–
CC(O)(C#Cc1cc2c(-c3nc(N)ncc3F)cn(C3CCOC3)c2cn1)C1CC1 (centres unmarked) [Compound 131]	21	440	89	150	–	–	–
CC(O)(C#Cc1cc2c(-c3nc(N)ncc3F)c[nH]c2cn1)C1CC1 (centres unmarked) [Compound 132]	6.5	410	30	77	–	–	–
Cc1nc(C#CC(C)(O)C2CC2)cc2c(-c3nc(N)ncc3F)cn(C3COC3)c12 (centres unmarked) [Compound 133]	50	330	66	140	–	–	–
CN1CCN(C(=O)n2cc(-c3nc(N)ncc3F)c3cc(C#CC(C)(O)C4CC4)ncc32)CC1 (centres unmarked) [Compound 134]	110	24000	3000	4100	–	–	–
CN1CC(n2cc(-c3nc(N)ncc3F)c3cc(C#CC(C)(O)C4CC4)ncc32)C1 (centres unmarked) [Compound 135]	68	410	64	180	–	–	–
